From patent publication US11666596B2, “Nucleotide, polypeptide and applications thereof” (THE FIRST AFFILIATED HOSPITAL, SUN YAT-SEN UNIVERSITY, priority 2017, dated 2023)
Ends that are not written are not given here.

Tested on: U251 cells
Experiment: Verification of ability of micropeptide to enter cells (fluorescence microscopy)
Type: cell-based
Details: FITC-attached micropeptide, 10 μM, 4 hours; all cells in sight were fluorescent; FIG. 4
Procedure: U251 cells were inoculated onto a glass slide at the density of 50%, and different concentrations of PTEN-31aa micropeptide attached with FITC fluorescent groups (the micropeptide was dissolved in DMSO with a concentration being 20 μg/μL, 5 mM) were added to treat cells for 4 hours, then fixed with Faure Marin, and observed and photographed under a fluorescence microscope.

ability of micropeptide to enter U251 cells: could enter the U251 cells smoothly
Sequence: MWRDSLCAAAGYALGAGTRLRSVLSSRKLQP [PTEN-31aa]
